In patent US20140371137A1, “PREPARATION OF PNA-6-AMINOGLUCOSAMINE CONJUGATES AS ANTIVIRAL AGENTS” (priority 2013, published 2014):

How the values were obtained:
HCV 5'NTR RNA = test: Gel electrophoretic mobility shift analysis (EMSA) of PNA-glucosamine conjugate binding to HCV 5'NTR RNA transcript; conditions: for gel retardation of the labeled RNA: 20 nM HCV 5'NTR RNA transcript
Protocol: FIG. 10. Stoichiometry of binding of PNA-glucosamine conjugate to its target sequence: (A) The PCR product corresponding to domains III and IV of 5′NTR and the 36 nucleotide of the N-terminal coding sequence of the HCV core were transcribed to generate 244-base runoff transcripts using a T7 transcription kit from Roche Applied Sciences. The 20 nM of internally 32P labeled HCV 5′NTR RNA transcript was incubated either with various concentrations of PNA-glucosamine conjugate complementary to sequence 352-338 in domain IV of the 5′NTR or (B) scramble PNA-glucosamine conjugate. Binding of the PNA-glucosamine conjugate (PNAHCV 352-338) to its target sequence was evaluated by gel electrophoretic mobility shift analysis (EMSA). Lane 1, control without PNA conjugate; lane 2, 10 nM of PNA conjugate; lane 3, 15 nM of PNA conjugate; lane 4, 20 nM of conjugate, lane 5, 25 nM of conjugate.
Target specificity of antisense PNA: Using a PNA-glucosamine conjugate targeted to the translation initiation window (352-338: […]) in Domain IV of HCV 5′NTR, we have shown that it has great specificity for the targeted sequence. The PNA-glucosamine conjugate ([…]) forms a tight complex with HCV RNA at a stoichiometric ratio (FIG. 10).

[1] = tested on: HCV subgenomic replicons in MH14 cells; test: Inhibition of viral translation and replication in MH14 cells carrying HCV subgenomic replicons; assay type: cell-based

PNAHCV353-338: PNA-glucosamine conjugate targeted to the translation initiation window (352-338: TTCGTGCTCATGGTG) in Domain IV of HCV 5'NTR (all peptide nucleic acid (PNA); glucosamine conjugate attached)
gel retardation of the labeled RNA (HCV 5'NTR RNA; 1:0.5 ratio of target RNA to PNA conjugate): 50%
gel retardation of the labeled RNA (HCV 5'NTR RNA; 1:0.75 ratio of target RNA to PNA conjugate): 75%
gel shift of the target RNA (HCV 5'NTR RNA; stoichiometric ratios of 1:1 or greater): complete gel shift
HCV translation (viral protein NS5B, Western blot) ([1]; 72 h, 50, 100 and 200 nM conjugate (FIG. 13A)): efficiently blocked at a subnanomolar concentration
HCV replication (viral RNA, RT PCR) ([1]; 72 h, 50, 100 and 200 nM conjugate (FIG. 13B)): efficiently blocked at a subnanomolar concentration
